According to patent US7183415B2, “Quinoline compound” (Takeda Pharmaceutical Company Limited, priority 2001, dated 2007):

SMILES | melting point
Cc1c(NC(=O)c2ccc(-c3ccc(Cl)cc3Cl)cc2F)ccc2cc(CN3CCCC3)cnc12 (hydrate or solvate) [Example 137, 2′,4′-dichloro-3-fluoro-N-[8-methyl-3-(1-pyrrolidinylmethyl)-7-quinolinyl][1,1′-biphenyl]-4-carboxamide] | 162 to 163 °C
Cc1c(NC(=O)c2ccc(-c3ccc(F)cc3)cc2)ccc2cc(CN3CCCCCC3)cnc12 [Example 180, N-[3-(1-azepanylmethyl)-8-methyl-7-quinolinyl]-4′-fluoro[1,1′-biphenyl]-4-carboxamide] | 166 to 168 °C
Cc1ccc(-c2ccc(C(=O)Nc3ccc4cc(CN5CCCC5)cnc4c3)c(F)c2)cc1 [Example 277, 3-fluoro-4′-methyl-N-[3-(1-pyrrolidinylmethyl)-7-quinolinyl][1,1′-biphenyl]-4-carboxamide] | 173 °C
CCc1ccc(-c2ccc(C(=O)Nc3cc4ncc(CN5CCCC5)cc4cc3C)cc2)cc1 [Example 217, 4′-ethyl-N-[6-methyl-3-(1-pyrrolidinylmethyl)-7-quinolinyl][1,1′-biphenyl]-4-carboxamide] | 188 °C
Cc1cc2cc(CN3CCCC3)cnc2cc1NC(=O)c1ccc(-c2ccccc2F)cc1 [Example 213, 2′-fluoro-N-[6-methyl-3-(1-pyrrolidinylmethyl)-7-quinolinyl][1,1′-biphenyl]-4-carboxamide] | 148 to 149 °C
Cc1c(NC(=O)c2ccc(-c3ccc4c(c3)CCCO4)cc2)ccc2cc(CN3CCCC3)cnc12 [Example 114, 4-(3,4-dihydro-2H-chromen-6-yl)-N-[8-methyl-3-(1-pyrrolidinylmethyl)-7-quinolinyl]benzamide] | 195 to 197 °C
COc1ccc(-c2ccc(C(=O)Nc3ccc4cc(CN5CCCC5)cnc4c3C)c(F)c2)cc1 [Example 147, 3-fluoro-4′-methoxy-N-[8-methyl-3-(1-pyrrolidinylmethyl)-7-quinolinyl][1,1′-biphenyl]-4-carboxamide] | 164 to 166 °C
COc1ccc(-c2ccc(C(=O)Nc3cc4ncc(CN5CCCC5)cc4cc3C)cc2F)cc1 [Example 236, 2-fluoro-4′-methoxy-N-[6-methyl-3-(1-pyrrolidinylmethyl)-7-quinolinyl][1,1′-biphenyl]-4-carboxamide] | 165 to 167 °C
COc1ccc(-c2ccc(C(=O)Nc3ccc4cc(CN5CCCCCC5)cnc4c3C)cc2F)cc1 (hydrate or solvate) [Example 190, N-[3-(1-azepanylmethyl)-8-methyl-7-quinolinyl]-2-fluoro-4′-methoxy[1,1′-biphenyl]-4-carboxamide] | 160 to 161 °C
Cc1c(NC(=O)c2ccc(-c3ccc(Cl)cc3)nc2)ccc2cc(CN3CCCC3)cnc12 [Example 95, 6-(4-chlorophenyl)-N-[8-methyl-3-(1-pyrrolidinylmethyl)-7-quinolinyl]nicotinamide] | 234 to 236 °C
Cc1c(NC(=O)c2ccc(-c3cccc(F)c3)cc2)ccc2cc(CN3CCCC3)cnc12 [Example 112, 3′-fluoro-N-[8-methyl-3-(1-pyrrolidinylmethyl)-7-quinolinyl][1,1′-biphenyl]-4-carboxamide] | 158 to 159 °C
Cc1c(NC(=O)c2ccc(-c3ccc(F)cc3)cc2)ccc2cc(CN(C(C)C)C(C)C)cnc12 [Example 194, N-{3-[(diisopropylamino)methyl]-8-methyl-7-quinolinyl}-4′-fluoro[1,1′-biphenyl]-4-carboxamide] | 179 to 180 °C
Cc1cc2cc(CN3CCC(CC(N)=O)CC3)cnc2cc1NC(=O)c1ccc(-c2ccc(F)cc2)cc1 [Example 270, N-(3-{[4-(2-amino-2-oxoethyl)-1-piperidinyl]methyl}-6-methyl-7-quinolinyl)-4′-fluoro[1,1′-biphenyl]-4-carboxamide] | 249 °C

The remaining lines, values ahead:

melting point | SMILES
229 to 231 °C | CNC(=O)CC1CCN(Cc2cnc3c(C)c(NC(=O)c4ccc(-c5ccc(F)cc5)cc4)ccc3c2)CC1 [Example 201, 4′-fluoro-N-[8-methyl-3-({4-[2-(methylamino)-2-oxoethyl]-1-piperidinyl}methyl)-7-quinolinyl][1,1′-biphenyl]-4-carboxamide]
206 to 208 °C | CSc1ccc(-c2ccc(C(=O)Nc3ccc4cc(CN5CCCC5)cnc4c3C)cc2)cc1 (hydrate or solvate) [Example 110, N-[8-methyl-3-(1-pyrrolidinylmethyl)-7-quinolinyl]-4′-(methylsulfanyl)[1,1′-biphenyl]-4-carboxamide]
202 to 204 °C | COc1ccc(-c2ccc(C(=O)Nc3ccc4cc(CN5CCCC5)cnc4c3)cc2)cc1 [Example 3, 4′-methoxy-N-[3-(1-pyrrolidinylmethyl)-7-quinolinyl][1,1′-biphenyl]-4-carboxamide]
184 to 187 °C | O=C(Nc1cc2ncc(CN3CCCC3)cc2cc1F)c1ccc(-c2ccc(OC(F)(F)F)cc2)cc1 [Example 56, N-[6-fluoro-3-(1-pyrrolidinylmethyl)-7-quinolinyl]-4′-(trifluoromethoxy)[1,1′-biphenyl]-4-carboxamide]
209 to 213 °C | CCNC(=O)CCCC1CCN(Cc2cnc3cc(NC(=O)c4ccc(-c5ccc(F)cc5)cc4)ccc3c2)CC1 [Example 47, N-[3-({4-[4-(ethylamino)-4-oxobutyl]-1-piperidinyl}methyl)-7-quinolinyl]-4′-fluoro[1,1′-biphenyl]-4-carboxamide]
175 to 178 °C | Cc1c(NC(=O)c2ccc(-c3ccc(OC(F)(F)F)cc3)cc2F)ccc2cc(CN3CCCC3)cnc12 [Example 136, 3-fluoro-N-[8-methyl-3-(1-pyrrolidinylmethyl)-7-quinolinyl]-4′-(trifluoromethoxy)[1,1′-biphenyl]-4-carboxamide]
202 to 204 °C | Cc1c(NC(=O)c2ccc(-c3ccc(F)cc3)cc2)ccc2cc(CN3CCC(CCCC(=O)N(C)C)CC3)cnc12 [Example 208, N-[3-({4-[4-(dimethylamino)-4-oxobutyl]-1-piperidinyl}methyl)-8-methyl-7-quinolinyl]-4′-fluoro[1,1′-biphenyl]-4-carboxamide]
254 °C | CCNC(=O)C1CCN(Cc2cnc3cc(NC(=O)c4ccc(-c5ccc(F)cc5)cc4)c(C)cc3c2)CC1 [Example 273, N-ethyl-1-[(7-{[(4′-fluoro-1,1′-biphenyl-4-yl)carbonyl]amino}-6-methyl-3-quinolinyl)methyl]piperidine-4-carboxamide]
250 °C | CCNC(=O)CC1CCN(Cc2cnc3cc(NC(=O)c4ccc(-c5ccc(Cl)cc5)cc4)ccc3c2)CC1 [Example 91, 4′-chloro-N-[3-({4-[2-(ethylamino)-2-oxoethyl]-1-piperidinyl}methyl)-7-quinolinyl][1,1′-biphenyl]-4-carboxamide]
232 to 234 °C | Cc1c(NC(=O)c2ccc(-c3ccc(F)cc3)cc2)ccc2cc(CN3CCC(CCCC(N)=O)CC3)cnc12 [Example 206, N-(3-{[4-(4-amino-4-oxobutyl)-1-piperidinyl]methyl}-8-methyl-7-quinolinyl)-4′-fluoro[1,1′-biphenyl]-4-carboxamide]
224 to 227 °C | CCNC(=O)CC1CCN(Cc2cnc3cc(NC(=O)c4ccc(-c5ccc(F)cc5)cc4)ccc3c2)CC1 [Example 44, N-[3-({4-[2-(ethylamino)-2-oxoethyl]-1-piperidinyl}methyl)-7-quinolinyl]-4′-fluoro[1,1′-biphenyl]-4-carboxamide]
